For assay [1], the system named is E. coli EC10 NDM-1. Kind of assay: Meropenem MIC, clinically derived strains. Format: cell-based. As to conditions: inhibitor 10 μg/ml. How it is done:
(§1) CLSI, Wayne, Pa.) in the absence of each inhibitor or in its presence at the concentration stated. In each case the inhibitor solution was added to broth at 0.1% v/v to achieve the required final concentration; DMSO was used to dissolve inhibitors.

The target of assay [2] is IMP-1 (Imipenemase-1) (Serratia marcescens, UniProt P52699). Kind of assay: Enzyme inhibition assay, IMP-1. As to conditions: read-out: pIC50 IMP-1 (converted). Format: biochemical. How it is done: (§2) The biological activity of the compounds of the present invention was tested using standard assay protocols.^7 The following representative enzymes NDM-1 (New Delhi metallo-β-lactamase-1), IMP-1 (Imipenemase-1) and VIM-2 (Veronese metallo-β-lactamase-2) were selected from different clinically relevant B1 metallo-β-lactamases.

For assay [3], the target named is NDM-1 (New Delhi metallo-β-lactamase-1) (Klebsiella pneumoniae, UniProt C7C422). Briefly: Enzyme inhibition assay, NDM-1. As to conditions: read-out: pIC50 NDM-1 (converted). The format is biochemical. How it is done:
as §2

The test system of assay [4] is E. coli IR60. Kind of assay: Meropenem MIC, CLSI broth microdilution. Format: cell-based. As to conditions: inhibitor 10 μg/ml. How it is done: as §1
(§3) For initial evaluations of the in vitro cell based activity of indole carboxylates we used well characterized bacterial strains (e.g. K. pneumoniae 5055; E. coli ATCC 25713) transformed with broad host range plasmids (e.g. pSU18 and derivatives) encoding few metallo-β-lactamases produced using their physiological (integron) promoters. We also tested a clinical strain, IR60 in the initial studies.^8
IR60 is a clinically strain original from India.^8 IR60 is also a multiresistant clinical strain.

The test system of assay [5] is E. coli 25922 (control). Kind of assay: Meropenem MIC, CLSI broth microdilution. The format is cell-based. The settings on record: inhibitor 10 μg/ml. How it is done: as §1, §3
Assay [6] relates to K. pneumoniae 5055 + NDM-1. Briefly: Meropenem MIC, CLSI broth microdilution. Format: cell-based. As to conditions: inhibitor 10 μg/ml. How it is done: as §1, §3
Background: Broth dilution looks for growth in wells or tubes with falling amounts of substance.

Assay [7] deals with K. pneumoniae 5055 (control). Kind of assay: Meropenem MIC, CLSI broth microdilution. The format is cell-based. The settings on record: inhibitor 10 μg/ml. How it is done:
as §1, §3

Assay [8] concerns K. pneumoniae 5055 IMP-1. Briefly: Meropenem MIC, clinically derived strains. The format is cell-based. The settings on record: inhibitor 10 μg/ml. How it is done: as §1
(§4) The results shown in Table 2 reveal that compounds of formula (I) are active in cells, including clinically relevant bacterial strains. Further studies were carried out to determine if compound of formula (I) potentiates BLA activity in clinically derived strains containing IMP-4, […] or NDM-1, which are the most commonly observed MBLs in clinical isolates.

Assay [9] concerns K. pneumoniae IR16 NDM-1. Kind of assay: Meropenem MIC, clinically derived strains. The format is cell-based. The settings on record: inhibitor 10 μg/ml. How it is done: as §1, §4
For assay [10], the system named is K. pneumoniae A34 VIM-4. Briefly: Meropenem MIC, clinically derived strains. The format is cell-based. As to conditions: inhibitor 10 μg/ml. How it is done:
as §1, §4

In assay [11] the test system is K. pneumoniae B12 IMP-4. Kind of assay: Meropenem MIC, clinically derived strains. The format is cell-based. As to conditions: inhibitor 10 μg/ml. How it is done:
as §1, §4

Assay [12] has as its system K. pneumoniae B19 IMP-4. Kind of assay: Meropenem MIC, clinically derived strains. The format is cell-based. The settings on record: inhibitor 10 μg/ml. How it is done: as §1, §4
Assay [13] has as its target VIM-2 (Veronese metallo-β-lactamase-2) (Escherichia coli, UniProt Q5U7L7). Briefly: Enzyme inhibition assay, VIM-2. The settings on record: read-out: pIC50 VIM-2 (converted). Format: biochemical. How it is done:
as §2

Assay [14] deals with K. pneumonia strain containing most clinically significant MBLs. Briefly: Screening against K. pneumonia strain containing MBLs, overall statement. Format: cell-based. As to conditions: Table 4. How it is done: as §1

Data on three compounds can be found in patent publication US11439622B2 (OXFORD UNIVERSITY INNOVATION LIMITED, priority 2015, dated 2022).

Sequence of NDM-1 (New Delhi metallo-β-lactamase-1) (C7C422 29-270, looked up, species assumed): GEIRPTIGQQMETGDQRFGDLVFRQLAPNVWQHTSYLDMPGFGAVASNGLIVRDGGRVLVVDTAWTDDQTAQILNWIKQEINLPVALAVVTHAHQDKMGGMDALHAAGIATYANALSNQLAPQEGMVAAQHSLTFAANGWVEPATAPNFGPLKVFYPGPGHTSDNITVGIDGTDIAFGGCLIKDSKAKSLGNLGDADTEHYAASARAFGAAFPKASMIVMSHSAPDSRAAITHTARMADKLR
Sequence of IMP-1 (Imipenemase-1) (P52699 19-246, looked up, species assumed): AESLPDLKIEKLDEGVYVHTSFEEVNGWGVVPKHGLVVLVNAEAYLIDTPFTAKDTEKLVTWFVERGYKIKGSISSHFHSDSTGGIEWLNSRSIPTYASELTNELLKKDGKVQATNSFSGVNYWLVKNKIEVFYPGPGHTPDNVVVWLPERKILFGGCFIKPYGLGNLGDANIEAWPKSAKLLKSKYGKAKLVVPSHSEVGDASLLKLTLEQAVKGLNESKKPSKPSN

Turning to `Cc1cccc2c(-c3ccc(S(N)(=O)=O)cc3)c(C(=O)O)[nH]c12` [Example 6, 7-methyl-3-(4-sulfamoylphenyl)-1H-indole-2-carboxylic acid], the Meropenem MIC in presence of inhibitor was 8 µg/mL in assay [1]; less than 0.25 µg/mL in [4]; less than 0.25 µg/mL in assay [5]; 1 µg/mL in [6]; less than 0.25 µg/mL in assay [7]; 8 µg/mL in [8]. The Meropenem MIC in presence of inhibitor in assay [9] came to 2 µg/mL; in assay [10], 16 µg/mL; in [11] it was 16 µg/mL; in assay [12], 8 µg/mL. Moreover, the IC50 in assay [2] is 10 µM; in assay [3] it was 0.0158 µM; in assay [13], 0.316 µM.
Consider `CC(C)c1cccc2c(-c3cc(Cl)cc(Cl)c3)c(C(=O)O)[nH]c12` [Example 76, 3-(3,5-dichlorophenyl)-7-isopropyl-1H-indole-2-carboxylic acid], for which the “activity against all the MBLs” value in assay [14] was “good activity”. Also, the results for the IC50 in assay [2], in assay [3] and in [13] were 0.0158 µM, 0.00794 µM and 0.00398 µM, respectively.
Consider `CC(C)c1cccc2c(-c3ccc(F)cc3)c(C(=O)O)[nH]c12` [Example 53, 3-(4-fluorophenyl)-7-isopropyl-1H-indole-2-carboxylic acid], for which the Meropenem MIC in presence of inhibitor in assay [1] is 1 µg/mL; in [4] it was less than 0.25 µg/mL; in assay [5], less than 0.25 µg/mL; in assay [6], 4 µg/mL; in assay [7], less than 0.25 µg/mL; in [8] it was 2 µg/mL. Also, the Meropenem MIC in presence of inhibitor in [9] worked out at 1 µg/mL; in assay [10] it was 4 µg/mL; in [11], 2 µg/mL; in assay [12], 1 µg/mL. Moreover, the results for the IC50 in assay [2], in assay [3] and in [13] were 0.501 µM, 0.0126 µM and 0.0316 µM, respectively.
